Converted amounts (≈) assume the structure as drawn. The source made the active and inactive calls. The calls are words filed in the database; no cut-off is given here.
Legend:
[1] = Cytotoxicity against human MDA-MB-231 cells assessed as viability at 25 ug/ml after 24 hrs by CCK8 assay relative to control; type: cell-based; details: at 25 µg/mL, read-out: Activity
Escherichia coli [2] = experiment: Antibacterial activity against Escherichia coli ATCC 25922 assessed as reduction in bacterial growth after 24 hrs in presence of sodium ion by CLSI based broth micro dilution method; type: functional
Staphylococcus aureus [3] = experiment: Antibacterial activity against Staphylococcus aureus ATCC 29213 infected in C57BL6 mouse assessed as reduction in bacterial load at 6.56 mmol/L, administered topically at 2 hrs interval for 3 days; type: functional; details: time 3 day
Staphylococcus aureus [4] = experiment: Bactericidal activity against Staphylococcus aureus ATCC 29213 assessed as reduction in bacterial load at 2 time of MIC concentration preincubated for 120 mins followed by compound washout further subculturing and measured after 24 hrs by time-kill assay; type: functional; details: 2 h
Staphylococcus aureus [5] = experiment: Antibacterial activity against methicillin-resistant Staphylococcus aureus NCTC10442 assessed as reduction in bacterial growth after 24 hrs in presence of sodium ion by CLSI based broth micro dilution method; type: functional
Staphylococcus aureus [6] = experiment: Bactericidal activity against Staphylococcus aureus ATCC 29213 assessed as reduction in bacterial load at 4 time of MIC concentration preincubated for 60 mins followed by compound washout further subculturing and measured after 24 hrs by time-kill assay; type: functional; details: 1 h
[7] = Cytotoxicity against human MDA-MB-231 cells assessed as viability at 3.125 ug/ml after 24 hrs by CCK8 assay relative to control; type: cell-based; details: at 3.125 µg/mL, read-out: Activity
Cell membrane [8] = experiment: Disruption of bacterial cell membrane in methicillin-resistant Staphylococcus aureus NCTC10442 measured for 1 hr by SYTOX green staining based assay
Staphylococcus aureus [9] = experiment: Antibacterial activity against methicillin-resistant Staphylococcus aureus N315 assessed as reduction in bacterial growth after 24 hrs in presence of magnesium ion by CLSI based broth micro dilution method; type: functional
Staphylococcus aureus [10] = experiment: Antibacterial activity against methicillin-resistant Staphylococcus aureus N315 assessed as reduction in bacterial growth after 24 hrs in presence of potassium ion by CLSI based broth micro dilution method; type: functional
Staphylococcus aureus [11] = experiment: Antibacterial activity against Staphylococcus aureus ATCC 29213 assessed as reduction in bacterial growth after 24 hrs in presence of sodium ion by CLSI based broth micro dilution method; type: functional
Staphylococcus aureus [12] = experiment: Antibacterial activity against Staphylococcus aureus ATCC 29213 assessed as reduction in bacterial growth after 24 hrs in presence of potassium ion by CLSI based broth micro dilution method; type: functional
Staphylococcus aureus [13] = experiment: Antibacterial activity against methicillin-resistant Staphylococcus aureus NCTC10442 assessed as reduction in bacterial growth after 24 hrs in presence of magnesium ion by CLSI based broth micro dilution method; type: functional
[14] = Cytotoxicity against mouse NCTC clone 929 cells assessed as viability at 3.125 ug/ml after 24 hrs by CCK8 assay relative to control; type: cell-based; details: at 3.125 µg/mL, read-out: Activity
Staphylococcus aureus [15] = experiment: Antibacterial activity against methicillin-resistant Staphylococcus aureus N315 assessed as reduction in bacterial growth after 24 hrs by CLSI based broth micro dilution method; type: functional
Staphylococcus aureus [16] = experiment: Antibacterial activity against methicillin-resistant Staphylococcus aureus N315 assessed as reduction in bacterial growth after 24 hrs in presence of calcium ion by CLSI based broth micro dilution method; type: functional
[17] = Cytotoxicity against mouse corneal fibroblast cells assessed as viability at 6.25 ug/ml after 24 hrs by CCK8 assay relative to control; type: cell-based; details: at 6.25 µg/mL, read-out: Activity
Staphylococcus aureus [18] = experiment: Antibacterial activity against methicillin-resistant Staphylococcus aureus NCTC10442 assessed as reduction in bacterial growth after 24 hrs in presence of potassium ion by CLSI based broth micro dilution method; type: functional
[19] = Cytotoxicity against mouse NCTC clone 929 cells assessed as viability at 6.25 ug/ml after 24 hrs by CCK8 assay relative to control; type: cell-based; details: at 6.25 µg/mL, read-out: Activity
[20] = Cytotoxicity against mouse corneal fibroblast cells assessed as viability at 25 ug/ml after 24 hrs by CCK8 assay relative to control; type: cell-based; details: at 25 µg/mL, read-out: Activity
Staphylococcus aureus [21] = experiment: Antibacterial activity against Staphylococcus aureus ATCC 29213 infected in C57BL6 mouse assessed as reduction in bacterial burden at 6.56 mmol/L, administered topically at 2 hrs interval for 3 days relative to control; type: functional; design: scale not given: the % may be the effect or the level left; details: time 3 day
Escherichia coli [22] = experiment: Antibacterial activity against Escherichia coli ATCC 25922 assessed as reduction in bacterial growth after 24 hrs by CLSI based broth micro dilution method; type: functional
Escherichia coli [23] = experiment: Antibacterial activity against Escherichia coli ATCC 25922 assessed as reduction in bacterial growth after 24 hrs in presence of potassium ion by CLSI based broth micro dilution method; type: functional
Staphylococcus aureus [24] = experiment: Bactericidal activity against Staphylococcus aureus ATCC 29213 assessed as reduction in bacterial load at 8 time of MIC concentration preincubated for 30 mins followed by compound washout further subculturing and measured after 24 hrs by time-kill assay; type: functional; details: 0.5 h
Staphylococcus aureus [25] = experiment: Antibacterial activity against methicillin-resistant Staphylococcus aureus N315 assessed as reduction in bacterial growth after 24 hrs in presence of sodium ion by CLSI based broth micro dilution method; type: functional
Staphylococcus aureus [26] = experiment: Antibacterial activity against methicillin-resistant Staphylococcus aureus NCTC10442 assessed as reduction in bacterial growth after 24 hrs by CLSI based broth micro dilution method; type: functional
[27] = Cytotoxicity against mouse NCTC clone 929 cells assessed as viability at 12.5 ug/ml after 24 hrs by CCK8 assay relative to control; type: cell-based; details: at 12.5 µg/mL, read-out: Activity
Staphylococcus aureus [28] = experiment: Antibacterial activity against Staphylococcus aureus ATCC 29213 assessed as reduction in bacterial growth after 24 hrs in presence of magnesium ion by CLSI based broth micro dilution method; type: functional
[29] = Hemolytic activity in rabbit RBC after 60 mins; type: ADME, cell-based, Oryctolagus cuniculus, Erythrocyte; details: rabbit red blood cells (erythrocytes)
[30] = Cytotoxicity against mouse NCTC clone 929 cells assessed as viability at 25 ug/ml after 24 hrs by CCK8 assay relative to control; type: cell-based; details: at 25 µg/mL, read-out: Activity
Staphylococcus aureus [31] = experiment: Antibacterial activity against Staphylococcus aureus ATCC 29213 assessed as reduction in bacterial growth after 24 hrs by CLSI based broth micro dilution method; type: functional
[32] = Cytotoxicity against mouse corneal fibroblast cells assessed as viability at 3.125 ug/ml after 24 hrs by CCK8 assay relative to control; type: cell-based; details: at 3.125 µg/mL, read-out: Activity
[33] = Cytotoxicity against mouse corneal fibroblast cells assessed as viability at 12.5 ug/ml after 24 hrs by CCK8 assay relative to control; type: cell-based; details: at 12.5 µg/mL, read-out: Activity
Cell membrane [34] = experiment: Disruption of bacterial cell membrane in Staphylococcus aureus ATCC 29213 measured for 1 hr by SYTOX green staining based assay
Staphylococcus aureus [35] = experiment: Antibacterial activity against Staphylococcus aureus ATCC 29213 assessed as reduction in bacterial growth after 24 hrs in presence of calcium ion by CLSI based broth micro dilution method; type: functional
Staphylococcus aureus [36] = experiment: Bactericidal activity against Staphylococcus aureus ATCC 29213 assessed as reduction in bacterial load at MIC concentration preincubated for 120 mins followed by compound washout further subculturing and measured after 24 hrs by time-kill assay; type: functional; details: 2 h
[37] = Cytotoxicity against human MDA-MB-231 cells assessed as viability at 6.25 ug/ml after 24 hrs by CCK8 assay relative to control; type: cell-based; details: at 6.25 µg/mL, read-out: Activity
Escherichia coli [38] = experiment: Antibacterial activity against Escherichia coli ATCC 25922 assessed as reduction in bacterial growth after 24 hrs in presence of calcium ion by CLSI based broth micro dilution method; type: functional
Cell membrane [39] = experiment: Disruption of bacterial cell membrane in Staphylococcus aureus ATCC 29213 at 8 times of MIC measured for 2 hr by propidium iodide and SYTO9 dye based LIVE/DEAD bacterial viability assay
[40] = Cytotoxicity against human MDA-MB-231 cells assessed as viability at 12.5 ug/ml after 24 hrs by CCK8 assay relative to control; type: cell-based; details: at 12.5 µg/mL, read-out: Activity
Escherichia coli [41] = experiment: Antibacterial activity against Escherichia coli ATCC 25922 assessed as reduction in bacterial growth after 24 hrs in presence of magnesium ion by CLSI based broth micro dilution method; type: functional
Staphylococcus aureus [42] = experiment: Antibacterial activity against Staphylococcus aureus ATCC 29213 assessed as reduction in bacterial growth at 0.5 time of MIC after 14 days passage by CLSI based broth micro dilution method; type: functional, organism-based; details: time 14.0 day
Staphylococcus aureus [43] = experiment: Antibacterial activity against methicillin-resistant Staphylococcus aureus NCTC10442 assessed as reduction in bacterial growth after 24 hrs in presence of calcium ion by CLSI based broth micro dilution method; type: functional

CC(C)=CCOc1ccc(/C=C/C(=O)c2ccc(OCC=C(C)C)cc2OCC(=O)N[C@@H](CCCNC(=N)N)C(=O)N[C@@H](CCCNC(=N)N)C(N)=O)cc1
viability at 24 h, 25 ug/ml [1]: 67.7%
MIC (Escherichia coli [2]): 12.5 µg/mL
log(activity) (Staphylococcus aureus [3]): 4.34
log(activity) (Staphylococcus aureus [4]): 2.76
MIC (Staphylococcus aureus [5]): 1.56 µg/mL
log(activity) (Staphylococcus aureus [6]): 3.25
viability at 24 h, 3.125 ug/ml [7]: 95.6%
Activity (Cell membrane [8]): Dose-dependent effect
MIC (Staphylococcus aureus [9]): 1.56 µg/mL
MIC (Staphylococcus aureus [10]): 1.56 µg/mL
MIC (Staphylococcus aureus [11]): 1.56 µg/mL
MIC (Staphylococcus aureus [12]): 1.56 µg/mL
MIC (Staphylococcus aureus [13]): 1.56 µg/mL
viability at 24 h, 3.125 ug/ml [14]: 82%
MIC (Staphylococcus aureus [15]): 1.56 µg/mL (≈ 2.05 µM)
MIC (Staphylococcus aureus [16]): 1.56 µg/mL
viability at 24 h, 6.25 ug/ml [17]: 76.3%
MIC (Staphylococcus aureus [18]): 1.56 µg/mL
viability at 24 h, 6.25 ug/ml [19]: 79%
viability at 24 h, 25 ug/ml [20]: 59.9%
Activity (Staphylococcus aureus [21]): >99.99%
MIC (Escherichia coli [22]): 6.25 µg/mL (≈ 8.2 µM)
MIC (Escherichia coli [23]): 6.25 µg/mL
log(activity) (Staphylococcus aureus [24]): 3.75
MIC (Staphylococcus aureus [25]): 1.56 µg/mL
MIC (Staphylococcus aureus [26]): 1.56 µg/mL (≈ 2.05 µM)
viability at 24 h, 12.5 ug/ml [27]: 69.9%
MIC (Staphylococcus aureus [28]): 1.56 µg/mL
HC50 at 1 h [29]: 276 µg/mL
viability at 24 h, 25 ug/ml [30]: 55.2%
MIC (Staphylococcus aureus [31]): 1.56 µg/mL (≈ 2.05 µM)
viability at 24 h, 3.125 ug/ml [32]: 98%
viability at 24 h, 12.5 ug/ml [33]: 64.2%
Activity (Cell membrane [34]): Dose-dependent effect
MIC (Staphylococcus aureus [35]): 1.56 µg/mL
log(activity) (Staphylococcus aureus [36]): 2.6
viability at 24 h, 6.25 ug/ml [37]: 89.3%
MIC (Escherichia coli [38]): 6.25 µg/mL
Activity (Cell membrane [39]): Active
viability at 24 h, 12.5 ug/ml [40]: 84.8%
MIC (Escherichia coli [41]): 6.25 µg/mL
Activity (Staphylococcus aureus [42]): Active
MIC (Staphylococcus aureus [43]): 1.56 µg/mL
